Measurements: PMC7217150, “Synthesis, Modification, and Biological Evaluation of a Library of Novel Water‐Soluble Thiopyridone‐Based Organometallic Complexes and Their Unexpected (Biological) Behavior” (Chemistry (Weinheim an Der Bergstrasse, Germany), 2020)
Where two headings read alike, the source gives them in different places.

Columns and labels:
A549 [1] = assay: MTT cytotoxicity assay, monolayer culture; assay type: cell-based, human; conditions: exposure time 96 h, means ± SDs
CH1/PA‐1 [2] = assay: MTT cytotoxicity assay, monolayer culture; assay type: cell-based, human; conditions: CH1/PA‐1, MTT assay, exposure time 96 h, means ± SDs
SW480 [3] = assay: MTT cytotoxicity assay, monolayer culture; assay type: cell-based, human
[4] = pH 7.2
Procedure: Stock solutions containing the desired complex in DMSO (5 mM) were diluted with phosphate buffer (pH 7.2) to a final concentration of […] compound in 1 % DMSO/20 mM buffer and directly analyzed by four different isocratic UHPLC runs (Δ=5 %). The lipophilicity parameters logkw and lipophilicity indices φ0 were calculated according to literature.7, 37

A549 [5] = conditions: A549 multicellular spheroids, 96 h drug exposure
Procedure: (§1) A549, CH1/PA‐1 and SW480 cells were grown in MEM supplemented with 10 % fetal calf serum (FCS; from Biowest), 1 mM sodium pyruvate, 4 mM L‐glutamine and 1 % v/v nonessential amino acids (from 100×solution) and L‐glutamine. HCT‐116 cells were maintained in McCoy's 5a medium supplemented with 10 % FCS and L‐glutamine. Adherent monolayer cultures were grown in 75 cm^2 flasks. For spheroid culture, A549, CH1/PA‐1 and HCT‐116 cells were harvested from culture flasks by trypsinization, resuspended in their respective supplemented medium and seeded in ultra‐low attachment round‐bottom 96‐well plates (Corning Costar) at a density of 500 viable cells per well. Plates were incubated for 96 h to allow spheroid formation prior to use for the tests. All cultures were incubated in a humidified incubator at 37 °C with 5 % CO2.
(§2) Cytotoxicity in multicellular spheroids was determined by the fluorimetric resazurin assay. […] After incubation for 96 h, 20 μL of a 440 μM resazurin sodium salt solution in PBS were added to each well, and the plates were incubated for further 16 h. Fluorescence was measured with a Synergy HT reader (BioTek) with an excitation wavelength of 530 nm and emission wavelength of 590 nm. For both assays, at least three independent experiments (or two in case of poor activity) were performed, each with triplicates per concentration level, and the 50 % inhibitory concentrations (IC50) relative to untreated controls were interpolated from concentration‐effect curves.

CH1/PA‐1 [6] = conditions: CH1/PA‐1 multicellular spheroids, 96 h drug exposure
Procedure: as §1, §2

HCT‐116 = HCT‐116 multicellular spheroids, 96 h drug exposure
Procedure: as §1, §2

SW480 cells = conditions: ICP‐MS, 2 h exposure, 50 μM
CH1/PA‐1 [7] = assay: Cell cycle distribution, flow cytometry with propidium iodide; assay type: cell-based, human; conditions: for Cell cycle distribution G1, % / Cell cycle distribution G2/M, % / Cell cycle distribution S, %: 24 h, mean ± SD; for Relative change in cell cycle distribution G1, % / Relative change in cell cycle distribution G2/M, % / Relative change in cell cycle distribution S, %: difference to untreated control
In short: (§3)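 CH1/PA-1 and SW480 cells were allowed to attach for 24 h, then exposed continuously to compounds for 24 h at 37 °C. Nuclei were stained overnight at 4 °C with propidium iodide (50 μg mL^−1) in Triton/citrate buffer. 5×10^3 cells were analysed by flow cytometry, with G1/S/G2/M fractions fitted by the Watson Pragmatic model.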

SW480 [8] = assay: as above; assay type: cell-based, human; conditions: for Cell cycle distribution G1, % / Cell cycle distribution G2/M, % / Cell cycle distribution S, %: 24 h, mean ± SD; for Relative change in cell cycle distribution G1, % / Relative change in cell cycle distribution G2/M, % / Relative change in cell cycle distribution S, %: difference to untreated control
In short: as §3

[9] = SW480, MTT assay, exposure time 96 h, means ± SDs

Cc1c([O-])c(=S)ccn1C.Cc1ccc(C(C)C)cc1.[Cl-].[Ru+2] [Compound 3 a, Chlorido[1,2‐dimethyl‐3‐oxo‐κO‐pyridine‐4(1H)‐thionato‐κS](η^6‐p‐cymene)‐ruthenium(II)]
IC50 (A549 [1]): > 200 µM
IC50 (CH1/PA‐1 [2]): > 200 µM
IC50 (SW480 [3]; [9]): 55 ± 18 µM
IC50 (SW480 [3]; SW480, as listed in Table 3): 54.6 ± 18.4 µM
φ0 (chromatographic lipophilicity index) [4]: 5.51
IC50 (A549 [5]): > 400 µM
IC50 (CH1/PA‐1 [6]): 267 ± 14 µM
IC50 (HCT‐116): > 400 µM
Cellular accumulation (SW480 cells): 21±5 fg/cell

CC1=C2[O][Rh+]([Cl])[S]=C2C=CN1C.Cc1c(C)c(C)[c-](C)c1C [Compound 5 a, Chlorido[1,2‐dimethyl‐3‐oxo‐κO‐pyridine‐4(1H)‐thionato‐κS](η^5‐1,2,3,4,5‐pentamethylcyclopentadienyl)rhodium(III)]
IC50 (A549 [1]): 117 ± 19 µM
IC50 (CH1/PA‐1 [2]): 11 ± 2 µM
IC50 (SW480 [3]; [9]): 5.5 ± 1.1 µM
IC50 (SW480 [3]; SW480, as listed in Table 3): 5.54 ± 1.07 µM
φ0 (chromatographic lipophilicity index) [4]: 5.91
IC50 (A549 [5]): 367 ± 24 µM
IC50 (CH1/PA‐1 [6]): 144 ± 7 µM
IC50 (HCT‐116): 140 ± 20 µM
Cell cycle distribution G1, % (CH1/PA‐1 [7]; CH1/PA-1, 10 µM): 28 ± 1%
Cell cycle distribution G2/M, % (CH1/PA‐1 [7]; CH1/PA-1, 10 µM): 28 ± 5%
Cell cycle distribution S, % (CH1/PA‐1 [7]; CH1/PA-1, 10 µM): 44 ± 5%
Relative change in cell cycle distribution G1, % (CH1/PA‐1 [7]; CH1/PA-1, 10 µM): -12%
Relative change in cell cycle distribution G2/M, % (CH1/PA‐1 [7]; CH1/PA-1, 10 µM): 4%
Relative change in cell cycle distribution S, % (CH1/PA‐1 [7]; CH1/PA-1, 10 µM): 8%
Cell cycle distribution G1, % (CH1/PA‐1 [7]; CH1/PA-1, 20 µM): 27 ± 5%
Cell cycle distribution G2/M, % (CH1/PA‐1 [7]; CH1/PA-1, 20 µM): 32 ± 4%
Cell cycle distribution S, % (CH1/PA‐1 [7]; CH1/PA-1, 20 µM): 41 ± 5%
Relative change in cell cycle distribution G1, % (CH1/PA‐1 [7]; CH1/PA-1, 20 µM): -13%
Relative change in cell cycle distribution G2/M, % (CH1/PA‐1 [7]; CH1/PA-1, 20 µM): 8%
Relative change in cell cycle distribution S, % (CH1/PA‐1 [7]; CH1/PA-1, 20 µM): 5%
Cell cycle distribution G1, % (CH1/PA‐1 [7]; CH1/PA-1, 40 µM): 26 ± 6%
Cell cycle distribution G2/M, % (CH1/PA‐1 [7]; CH1/PA-1, 40 µM): 31 ± 2%
Cell cycle distribution S, % (CH1/PA‐1 [7]; CH1/PA-1, 40 µM): 42 ± 1%
Relative change in cell cycle distribution G1, % (CH1/PA‐1 [7]; CH1/PA-1, 40 µM): -14%
Relative change in cell cycle distribution G2/M, % (CH1/PA‐1 [7]; CH1/PA-1, 40 µM): 7%
Relative change in cell cycle distribution S, % (CH1/PA‐1 [7]; CH1/PA-1, 40 µM): 6%
shift of cell cycle distribution towards S and G2/M phases in total (CH1/PA‐1 [7]; CH1/PA‐1 cells, 40 μM): up to 14%
Cell cycle distribution G1, % (SW480 [8]; SW480, 5 µM): 44 ± 1%
Cell cycle distribution G2/M, % (SW480 [8]; SW480, 5 µM): 26 ± 2%
Cell cycle distribution S, % (SW480 [8]; SW480, 5 µM): 30 ± 4%
Relative change in cell cycle distribution G1, % (SW480 [8]; SW480, 5 µM): -4%
Relative change in cell cycle distribution G2/M, % (SW480 [8]; SW480, 5 µM): 7%
Relative change in cell cycle distribution S, % (SW480 [8]; SW480, 5 µM): -3%
Cell cycle distribution G1, % (SW480 [8]; SW480, 10 µM): 38 ± 4%
Cell cycle distribution G2/M, % (SW480 [8]; SW480, 10 µM): 20 ± 4%
Cell cycle distribution S, % (SW480 [8]; SW480, 10 µM): 42 ± 1%
Relative change in cell cycle distribution G1, % (SW480 [8]; SW480, 10 µM): -10%
Relative change in cell cycle distribution G2/M, % (SW480 [8]; SW480, 10 µM): 1%
Relative change in cell cycle distribution S, % (SW480 [8]; SW480, 10 µM): 9%
Cell cycle distribution G1, % (SW480 [8]; SW480, 20 µM): 46 ± 3%
Cell cycle distribution G2/M, % (SW480 [8]; SW480, 20 µM): 12 ± 1%
Cell cycle distribution S, % (SW480 [8]; SW480, 20 µM): 42 ± 2%
Relative change in cell cycle distribution G1, % (SW480 [8]; SW480, 20 µM): -2%
Relative change in cell cycle distribution G2/M, % (SW480 [8]; SW480, 20 µM): -7%
Relative change in cell cycle distribution S, % (SW480 [8]; SW480, 20 µM): 9%
decrease in G1 phase (SW480 [8]; SW480 cells, 10 μM): 10%
Cellular accumulation (SW480 cells): 118±35 fg/cell
